According to paper doi:10.1101/041947v2 (biorxiv, 2016):

Test system: A549
Assay: cells
Details: Homo sapiens, A549, read-out: IC50 nM

Molecule `CC[C@]1(O)C[C@@H]2CN(CCc3c([nH]c4ccccc34)[C@@](C(=O)OC)(c3cc4c(cc3OC)N(C)[C@H]3[C@@](O)(C(=O)OC)[C@H](OC(C)=O)[C@]5(CC)C=CCN6CC[C@]43[C@@H]65)C2)C1` [Vinblastine] has an IC50 of 4.2 nM.
